Measurements reported in BindingDB's records for doi:10.1016/j.bmcl.2009.05.120 (Royal College of Surgeons In Ireland, 2009).

Experiment: Inhibition of PGHS-1 in human platelet rich plasma assessed as inhibition of arachidonic acid-induced platelet aggregation in human platelet rich plasma treated 5 min before arachidonic acid challenge by turbidimetry

COC(=O)CCCCc1cccc(C(=O)OC)c1OC(C)=O [methyl 2-acetoxy-3-(5-methoxy-5-oxopentyl)benzoate] gave an IC50 of 720 µM.
